Test results as given in PMC8468504, “Marine Transcriptomics Analysis for the Identification of New Antimicrobial Peptides” (Marine Drugs, 2021).
Ends that are not written are not given here.

Experiments:
Format in all cases: cell-based
[1] = system: Aeromonas salmonicida; details: 16 h
Method: (§1) The antibacterial activity of peptides β-Pte20, β-Pte17, β-Pte13 and β-Pte10 from pteroicidin B and γ-Pte20, γ-Pte17, γ-Pte13 and γ-Pte10 from pteroicidin C was evaluated on several bacteria as presented in Table 3. All peptides were solubilized in sterilized water. The minimum inhibitory concentrations (MICs) were determined according to the liquid growth inhibition test following the protocol established by Hetru and Bulet and used for the study of α-pteroicidins. Briefly, 10 μL of peptide solution were added to 100 μL of bacterial suspension at a starting OD600 of 0.001 (~10^5 to 10^6 CFU/mL according to strain) and incubated in 96-well microplates. Bacterial growth was assessed by optical density measurement at 595 nm after 16 h of incubation. All the tests were performed three times, and each peptide concentration between 0.1 and 50 µM was tested in triplicate. MICs were expressed in µM as an [a]–[b] concentration interval where [a] was the last concentration with bacterial growth and [b] was the first concentration with 100% bacterial growth inhibition. MBCs (minimal bactericidal concentrations) were expressed in µM as an [a]–[b] concentration interval where [a] was the last concentration with bacterial growth and [b] was the first concentration that killed 100% of the bacteria, determined after the plating on agar plates.

[2] = system: Escherichia coli; details: 16 h
Method: as §1

[3] = system: Listeria monocytogenes; details: 16 h
Method: as §1

[4] = system: Salmonella typhimurium; details: 16 h; for MIC: murium
Method: as §1

[5] = system: Staphylococcus aureus; details: 16 h
Method: as §1

[6] = system: Vibrio aestuarianus; details: 16 h
Method: as §1

[7] = system: Vibrio splendidus; details: 16 h
Method: as §1

[8] = system: Vibrio vulnificus; details: 16 h
Method: as §1

[9] = system: Enterococcus faecalis; details: 16 h
Method: as §1

[10] = system: human red blood cells; details: 200 µM
Method: The hemolytic activity of peptides β-Pte20, β-Pte17, β-Pte13 and β-Pte10 from pteroicidin B and γ-Pte20, γ-Pte17, γ-Pte13 and γ-Pte10 from pteroicidin C was evaluated on human red blood cells (RBCs) following the protocol previously described in [96] and used for α-Pte in a previous study. RBCs were obtained from nine blood samples from French blood donors thanks to the support of the Etablissement Français du Sang (EFS). RBCs were rinsed twice in PBS and then diluted to obtain a 1% erythrocyte solution (~5 × 10^6 cells determined using a Scepter™ 2.0 cell counter). Ninety μL of erythrocyte solution were incubated with 90 μL of peptide solution at concentrations ranging from 5 to 200 μM, for one hour at 37 °C without shaking. The percentage of hemolysis was determined by optical density measurement at 415 nm. The experiment was performed in triplicate. The 0% hemolysis and 100% hemolysis controls were determined in PBS and 1% Triton X-100, respectively.

Sequence	MBC [1] [µM]	MIC [1] [µM]	MBC [2] [µM]	MIC [2] [µM]	MBC [3] [µM]	MIC [3] [µM]	MBC [4] [µM]	MIC [4] [µM]	MBC [5] [µM]	MIC [5] [µM]	MBC [6] [µM]	MIC [6] [µM]	MBC [7] [µM]	MIC [7] [µM]	MBC [8] [µM]	MIC [8] [µM]	MIC [9] [µM]	hemolysis [10] [%]
FFKRLKNAFKSARQAWR [β-Pte17]	5 to 10	5 to 10	1 to 5	1 to 5	25 to 50	5 to 10	10 to 25	10 to 25	25 to 50	10 to 25	10 to 25	10 to 25	10 to 25	10 to 25	10 to 25	10 to 25		
FFKRLKNAFKSARQAWRDYK [β-Pte20]	1 to 5	1 to 5	5 to 10	1 to 5	5 to 10	1 to 5	10 to 25	10 to 25	10 to 25	1 to 5	5 to 10	1 to 5	5 to 10	1 to 5	5 to 10	5 to 10		
FFRHLKSLWK [γ-Pte10]		25 to 50	25 to 50	25 to 50														
FFRHLKSLWKGAK [γ-Pte13]		25 to 50	10 to 25	10 to 25														
FFRHLKSLWKGAKAAFR [γ-Pte17]	1 to 5	1 to 5	10 to 25	1 to 5	5 to 10	1 to 5	5 to 10	5 to 10	1 to 5	1 to 5	5 to 10	5 to 10	10 to 25	10 to 25	10 to 25	10 to 25	1 to 5	43
FFRHLKSLWKGAKAAFRGAR [γ-Pte20]	1 to 5	1 to 5	1 to 5	1 to 5	5 to 10	1 to 5	5 to 10	5 to 10	1 to 5	1 to 5	10 to 25	5 to 10	5 to 10	5 to 10	10 to 25	10 to 25	1 to 5	19
